Source: patent US5434256A, “Diamine platinum complexes as antitumor agents” (priority 1994, dated 1995)

Legend:
[1] = tested on: M5076 Tumor Model; assay: In vivo antitumor activity against M5076 tumor model (Example 3, Table 4); set-up: species or system BDF1 mice; TGD (Tumor Growth Delay): unit not given beside the values; conditions: for MTD (Maximum Tolerated Dose) / TGD (Tumor Growth Delay): M5076 s.c., BDF1 mice, i.p. days 7, 14, 21, 28; for TGD (Tumor Growth Delay): at optimal dose/MTD
Method: (§1) Each of the platinum complexes was evaluated in vivo against L1210/0, L1210/DDP, L1210/DACH and M5076 cells at several dose levels. […] The data at optimal doses are reproduced in Tables 4-7 along with data for the cyclobutanedicarboxylato, aquasulfato, methylmalonato and tartronato analogs (compounds 1-4 in Table 1).
BDF1 mice inoculated s.c. with 10' M5076 cells on day 0 and drug
administered i.p on days 7, 14, 21, and 28. MTD = Maximum Tolerated Dose
(mg/kg/injection), TGD = Tumor Growth Delay

[2] = tested on: L1210/DDP cells; assay: MTT cytotoxicity, cisplatin-resistant L1210/DDP (Example 5, Table 10); format: cell-based, murine; conditions: 72 hr (3 days) continuous exposure
[3] = tested on: M5076 reticulosarcoma; assay: In vivo antitumor activity, M5076 reticulosarcoma (Example 6, Table 11); set-up: species or system male BDF1 mice; conditions: M5076 s.c.; drug i.p. days 5, 9, 13, 17; optimal dose (mg/kg/inj): 12: 25; Cisplatin: 5
Method: (§2) Cisplatin-sensitive L1210/0 or cisplatin-resistant L1210/DDP cells (1×10^5 cells/mouse) were injected intraperitoneally in male BDF1 mice on day 0, and the drug, in an aqueous medium, administered intraperitoneally at dose levels ranging from 1.56 to 200 mg/kg on days 1, 5 and 9. The median life spans of control (C) and treated (T) animals were determined, and the percent T/C at the optimal dose calculated as an indicator of antitumor efficacy. The complexes were also evaluated against the M5076 reticulosarcoma. […]. The tumor volumes were measured periodically and efficacy at the optimal dose reported as tumor growth delay (TGD), which is defined as the time difference in days for the tumor in control and treated mice to reach a specified volume.
(§3) BDF1 mice inoculated i.p. with 10^5 L1210 Leukemia cells on day 0 wer
(§4) administered the drug on days 1, 5, and 9. BDF1 mice inoculated s.c. with
(§5) 10^7 M5076 cells on day 0 received the drug on days 5, 9, 13, and 17.
(§6) % T/C = [(median survival time of treated)/(median survival time of
(§7) control)] × 100. TGD = tumor growth delay.

[4] = tested on: Murine Leukemia 1210/DDP; assay: In vivo antitumor activity against murine leukemia L1210/DDP (Example 3, Table 7); set-up: species or system BDF1 mice; conditions: for MTD (Maximum Tolerated Dose) / % T/C (mean survival time of treated/mean survival time of control) × 100: L1210/DDP i.p., BDF1 mice, drug i.p. days 1, 5, 9; for % T/C (mean survival time of treated/mean survival time of control) × 100: at optimal dose/MTD
Method: as §1
(§8) BDF1 mice inoculated i.p. with 10^5 L1210 Leukemia cells on day 0 and
drug administed i.p. on days 1, 5, and 9. MTD = Maximum Tolerated Dose
(§9) (mg/kg/injection), % T/C = (mean survival time of treated/mean survival
(§10) time of control) × 100. Figures in parenthesis indicated long term

[5] = tested on: L1210/DDP cells; assay: In vivo antitumor activity, cisplatin-resistant L1210/DDP (Example 6, Table 11); set-up: species or system male BDF1 mice; conditions: L1210/DDP i.p.; drug i.p. days 1, 5, 9; median survival; optimal dose (mg/kg/inj): 12: 25; Cisplatin: 5
Method: as §2, §3, §4, §5, §6, §7

[6] = tested on: L1210/0 cells; assay: In vivo antitumor activity, L1210/0 (Example 6, Table 11); set-up: species or system male BDF1 mice; conditions: for % T/C at optimal dose: L1210/0 i.p., drug i.p. days 1, 5, 9, median survival, optimal dose (mg/kg/inj): 12, 13, 14: 25, 15: 12.5, Cisplatin: 5; for Optimal Dose: i.p., dose levels 1.56 to 200 mg/kg tested, L1210/0, L1210/DDP and M5076
Method: as §2, §3
administered the drug on days 1, 5, and 9. […]

[7] = tested on: L1210/DACH cells; assay: MTT cytotoxicity, tetraplatin-resistant L1210/DACH (Example 5, Table 10); format: cell-based, murine; conditions: 72 hr (3 days) continuous exposure
[8] = tested on: L1210/0 cells; assay: MTT cytotoxicity, L1210/0 (Example 5, Table 10); format: cell-based, murine; conditions: 72 hr (3 days) continuous exposure
[9] = tested on: A2780 cells; assay: Modified MTT cytotoxicity assay, human ovarian A2780 (Example 2, Table 3); format: cell-based; conditions: continuous exposure (5 days in table footnote; 7 days in text)
[10] = tested on: Murine Leukemia L1210/0; assay: In vivo antitumor activity against murine leukemia L1210/0 (Example 3, Table 5); set-up: species or system BDF1 mice; conditions: for % T/C (mean survival time of treated/mean survival time of control) × 100: at optimal dose/MTD
Method: as §1
BDF1 mice inoculated i.p. with 10^5 L1210 Leukemiacells on day 0 and
(§11) drug administered i.p. on days 1, 5, and 9. MTD = Maximum Tolerated Dose
as §9
time of control) × 100. Figures in parenthesis indicate long term

[11] = tested on: Murine Leukemia L1210/DACH; assay: In vivo antitumor activity against murine leukemia L1210/DACH (Example 3, Table 6); set-up: species or system BDF1 mice; conditions: for MTD (Maximum Tolerated Dose) / % T/C (mean survival time of treated/mean survival time of control) × 100: L1210/DACH i.p., BDF1 mice, drug i.p. days 1, 5, 9; for % T/C (mean survival time of treated/mean survival time of control) × 100: at optimal dose/MTD
Method: as §1, §8, §11, §9, §10

[12] = tested on: L1210/0 cells; assay: Modified MTT cytotoxicity assay, murine leukemia L1210/0 (Example 2, Table 3); format: cell-based; conditions: for IC50: L1210/0, MTT, continuous exposure 5 days; for effectiveness against murine versus human cells (in words): L1210/0 versus A2780
[13] = Renal and hematological toxicity, single i.p. dose (Table 8)
[14] = L1210/0 i.p., BDF1 mice, drug i.p. days 1, 5, 9

SMILES | MTD (Maximum Tolerated Dose) [1] | TGD (Tumor Growth Delay) [1] | IC50 [2] | TGD (tumor growth delay) at optimal dose [3] | MTD (Maximum Tolerated Dose) [4] | % T/C (mean survival time of treated/mean survival time of control) × 100 [4] | % T/C at optimal dose [5] | % T/C at optimal dose [6] | Optimal Dose [6] | IC50 [7] | IC50 [8] | IC50 [9] | MTD (Maximum Tolerated Dose) [10, 14] | % T/C (mean survival time of treated/mean survival time of control) × 100 [10, 14] | antitumor activity in vivo against L1210/DACH (in words) [11] | MTD (Maximum Tolerated Dose) [11] | % T/C (mean survival time of treated/mean survival time of control) × 100 [11] | IC50 [12] | effectiveness against murine versus human cells (in words) [12] | further results
N.N.[Cl][Pt][Cl] [Cis-platin, cis-diaminedichloroplatinum(II), reference compound] | 5.0 mg/kg/injection | 23.1 | 32800 nM | 16.0 days | 5.0 mg/kg/injection | 100% | 110% | 218% | 5 mg/kg/inj | 1910 nM | 200 nM | 360 nM | 5.0 mg/kg/injection | 218% | minimally sensitive to cis-platin | 5.0 mg/kg/injection | 127% | 230 nM | more effective against murine than human cells | 
CC(=O)[O][Pt]([Cl])([Cl])[O]C(C)=O.N[C@@H]1CCCC[C@H]1N [Compound 12, (R,R-1,2-DACH)PtCl2 trans(acetate)2] |  |  | 700 nM | 18.3 days |  |  | 144% | 276% | 25 mg/kg/inj | 2300 nM | 220 nM |  |  |  |  |  |  |  |  | 
CC(=O)[O][Pt]([Cl])([Cl])[O]C(C)=O.N[C@H]1CCCC[C@@H]1N [Compound 13, (S,S-1,2-DACH)PtCl2 trans-(acetate)2] |  |  | 7000 nM |  |  |  |  | 265% | 25 mg/kg/inj | 4200 nM | 880 nM |  |  |  |  |  |  |  |  | 
CC(=O)[O][Pt]([Cl])([Cl])[O]C(C)=O.NC1CCCCC1N [Compound 14, (cis-1,2-DACH)PtCl2 trans(acetate)2] |  |  | 115000 nM |  |  |  |  | 171% | 25 mg/kg/inj | 20900 nM | 3000 nM |  |  |  |  |  |  |  |  | 
N[C@@H]1CCCC[C@H]1N.O=C([O][Pt]([Cl])([Cl])[O]C(=O)C(F)(F)F)C(F)(F)F [Compound 15, (R,R-1,2-DACH)PtCl2 trans(trifluoroacetate)2] |  |  | 850 nM |  |  |  |  | 241% | 12.5 mg/kg/inj | 1720 nM | 100 nM |  |  |  |  |  |  |  |  | 
N[C@@H]1CCCC[C@H]1N.[Cl][Pt+2]([Cl])([Cl])[Cl] [Tetraplatin, reference compound] | 3.1 mg/kg/injection | 11.8 | 440 nM |  | 3.1 mg/kg/injection | 143% |  |  |  | 5300 nM | 110 nM | 200 nM | 3.1 mg/kg/injection | 310% | resistant to tetraplatin | 3.1 mg/kg/injection | 89% | 110 nM | more effective against murine than human cells | antitumor properties against M5076 (in words) ([1]; M5076): the least active; BUN d.5 ([13]; blood urea nitrogen, single i.p. dose (mg/kg): 1,4-DACH-Pt^II CBDCA 300, 1,4-DACH-Pt^IV Cl4 8.0, Tetraplatin 8.0, Cis-platin 12.0, Carboplatin 150, saline control 20.9): 17.2 mg %; Survivors on d.14 ([13]; single i.p. dose (mg/kg): 1,4-DACH-Pt^II CBDCA 300, 1,4-DACH-Pt^IV Cl4 8.0, Tetraplatin 8.0, Cis-platin 12.0, Carboplatin 150): 5/5; Body Wt. on d.5 ([13]; single i.p. dose (mg/kg): 1,4-DACH-Pt^II CBDCA 300, 1,4-DACH-Pt^IV Cl4 8.0, Tetraplatin 8.0, Cis-platin 12.0, Carboplatin 150, mean, S.D. less than 20%): 94 % on control; myelotoxicity / myelosuppression (in words) ([13]; single i.p. dose, leucopenia): myelosuppressive; antitumor activity in vivo against L1210/DDP (in words) ([4]; L1210/DDP): active; antitumor activity in vivo against L1210/0 (in words) ([10]; L1210/0): active; long term survivors/no. tested ([10]; L1210/0 i.p., BDF1 mice, drug i.p. days 1, 5, 9, figures in parenthesis): 2/5; potency relative to cis-platin ([12]; L1210/0 and A2780 tumor lines, more potent than cis-platin): 2-3 fold
